# Measured values as given in patent EP0028305A1, “Diaryl compounds and pharmaceutical formulations containing them” (THE WELLCOME FOUNDATION LIMITED, priority 1979, dated 1981).
# Counter-ions that a name gives are not always drawn.
# System: virus
# Experiment: plaque reduction (PR) test
# Assay type: cell-based
# Settings: plaque reduction assay, compound incorporated in nutrient agarose overlay; read-out: PR(ED50/µM)
# Experimental: (§1) Activity may be detected by the plaque inhibition (PI) test and measured by the plaque reduction (PR) test. Both assays involve the formation of a monolayer cell culture in a petri dish followed by infection with a virus suspension, and then overlaying the culture with nutrient agarose in the form of a gel. This gel ensures that there is no spread of virus throughout the culture and thus areas of localised cell destruction or plaques are formed.
# Detectable activity is measured with the plaque reduction assay. A range of concentrations of compounds of known molarity are incorporated in the nutrient agarose overlay. Plaque suppression is proportional to compound concentration. Plaque numbers are expressed as percentages of a control, and a dose response curve may be drawn. From this curve 50% of the effective dose (ED50) may be estimated.
row,SMILES,EC50
1,"Clc1ccc(COc2ccc(Cl)c(Cl)c2)cc1 [Example 11, 4-Chlorobenzyl 3,4-dichlorophenyl ether]",0.33 µM
2,"FC(F)(F)c1cccc(OCc2ccccc2)c1 [Example 6, Benzyl 3-trifluoromethylphenyl ether]",0.66 µM
3,"Clc1ccc(CNc2ccccc2)cc1Cl [Example 1, N-3,4-dichlorobenzylaniline hydrochloride]",0.17 µM
4,"OC(C=Cc1ccc(Cl)c(Cl)c1)c1ccccc1 (stereo not drawn) [Example 17, 3-(3,4-dichlorophenyl)-l-phenylprop-2-en-l-ol]",1.2 µM
5,"CCc1ccc(OCc2ccc(Cl)cc2)cc1 [Example 3, 4-Chlorobenzyl 4-ethylphenyl ether]",0.72 µM
6,"O=[N+]([O-])c1ccccc1OCc1ccc(Cl)cc1 [Example 2, 4-chlorobenzyl 2-nitrophenyl ether]",1.2 µM
7,"OC(CNc1ccc(Cl)cc1)c1ccc(Cl)cc1 (stereo not drawn) [Example 24, 2-(4-chloroanilino)-1-(4-chlorophenyl)ethanol]",3 µM
8,"CC(C)(C)c1cccc(OCc2ccc(Cl)cc2)c1 [Example 4, 4-Chlorobenzyl 3-t-butylphenyl ether]",1.9 µM
9,"Clc1ccc(COc2ccc(Cl)c(Cl)c2)cc1Cl [Example 5, 3,4-Dichlorobenzyl 3,4-dichlorophenyl ether]",0.47 µM
10,"OC(CCc1ccc(Cl)cc1)c1ccc(Cl)cc1 (stereo not drawn) [Example 13, 1,3-bis-(4-chlorophenyl)propan-1-ol]",1.3 µM
11,"Clc1ccc(CCCc2ccccc2)cc1Cl [Example 12, 1-(3,4-dichlorophenyl)-3-phenylpropane]",0.068 µM
12,"O=C(CCc1ccc(Cl)c(Cl)c1)c1ccccc1 [Example 15, 3-(3,4-dichlorophenyl)-1-phenylpropan-1-one]",0.235 µM
13,"OC(C=Cc1ccc(Cl)cc1)c1ccc(Cl)cc1 (stereo not drawn) [Example 18, 1,3-bis-(4-chlorophenyl)prop-2-en-1-ol]",1.35 µM
14,"OCc1cccc(OCc2ccc(Cl)cc2)c1 [Example 23, 4-chlorobenzyl 3-hydroxymethylphenyl ether]",0.53 µM
15,"OC(CCc1ccc(Cl)c(Cl)c1)c1ccccc1 (stereo not drawn) [Example 14, 3-(3,4-dichlorophenyl)-1-phenylpropan-1-ol]",0.66 µM
16,"OC(COc1ccc(Cl)cc1)c1ccc(Cl)cc1 (stereo not drawn) [Example 19, 2-(4-chlorophenoxy)-1-(4-chlorophenyl)ethanol]",1.5 µM
17,"O=C(O)c1ccc(OCc2ccc(Cl)cc2)cc1 [Example 9, 4-Chlorobenzyl 4-carboxyphenyl ether]",1.6 µM
18,"Clc1cc(COc2ccccc2)cc(Cl)c1Cl [Example 10, 3,4,5-Trichlorobenzyl phenyl ether]",1.6 µM
19,"Cc1ccc(COc2ccc(C)cc2)cc1 [Example 8, 4-Methylbenzyl 4-methylphenyl ether]",0.56 µM
20,"OC(COc1ccc(Cl)c(Cl)c1)c1ccccc1 (stereo not drawn) [Example 20, 2-(3,4-dichloro^phenoxy)-l-phenylethanol]",2.5 µM
21,"NC(=S)c1ccc(OCc2ccc(Cl)cc2)cc1 [Example 21, 4-(4-chlorobenzyloxy)benzenecarbothioamide]",0.6 µM
22,"N#Cc1ccc(OCc2ccc(Cl)cc2)cc1 [Example 7, 4-Chlorobenzyl 4-cyanophenyl ether]",0.22 µM
23,"NC(=O)c1ccc(OCc2ccc(Cl)cc2)cc1 [Example 22, 4-(4-chlorobenzyloxy)benzamide]",0.43 µM
24,"Clc1ccc(CC=Cc2ccccc2)cc1Cl [Example 16, 3-(3,4-dichlorophenyl)-1-phenylpropene]",0.19 µM

# Same assay, conditions: second value printed in parentheses in the same cell, meaning not explained; read-out: PR(ED50/µM)
row,SMILES,EC50
1,"FC(F)(F)c1cccc(OCc2ccccc2)c1 [Example 6, Benzyl 3-trifluoromethylphenyl ether]",1.7 µM
2,"CC(C)(C)c1cccc(OCc2ccc(Cl)cc2)c1 [Example 4, 4-Chlorobenzyl 3-t-butylphenyl ether]",5 µM

# System: virus
# Experiment: intranasal administration, simulation in vitro (plaque formation, compound applied to petri dish lid)
# Assay type: cell-based
# Settings: lug dissolved in ethanol, applied to lids of petri dishes, ethanol evaporated; compound penetrated the agarose layer
# From the text: as §1
# In the plaque inhibition test a filter paper disc which holds 0.01 ml when impregnated with a solution of a compound is placed on top of the agarose gel. The compound may then diffuse throughout the gel so that its greatest concentration will be around the disc and its lowest concentration towards the periphery of the petri dish. The efficacy of the compound may be detected by observing the zone of inhibition of plaque formation.
# Petri dishes were prepared, as for the plaque inhibition test and the confluer sheet of cells was covered with a layer of agarose gel. The compound, of Example 12 (lug) was dissolved in ethanol, and applied to the lids of the petri dishes. When the ethanol had evaporated, leaving the compound spread over the inside of the lids, these were replaced on the petri dishes.
row,SMILES,inhibition of plaque formation
1,"Clc1ccc(CCCc2ccccc2)cc1Cl [Example 12, 1-(3,4-dichlorophenyl)-3-phenylpropane]",total inhibition
